Where two headings read alike, the source gives them in different places.
What was measured:
human CB1 receptor = target: T1, human CB1 receptor (Homo sapiens, UniProt P21554); assay: Binding assay, cannabinoid CB1 receptor, [3H]-CP-55,940 displacement
T1 construct: expressed in transfected cells; host or cells: SK-N-MC cells, stably transfected with pcDNA3 CB-1 (human); semi-purified membrane pellet
Experimental: (§1) The human CB1 and CB2 receptors were stably expressed in SK-N-MC cells transfected with pcDNA3 CB-1 (human) or pcDNA3 CB-2 (human). The cells were grown in T-180 cell culture flasks under standard cell culture conditions at 37° C. in a 5% CO2 atmosphere. The cells were harvested by trysinization and homogenized in a homogenization buffer (10 mM Tris, 0.2 mM MgCl2, 5 mM KCl, with protease inhibitors aprotinin, leupeptin, pepstatin A and bacitracin) and centrifuged (2000 g). The supernatant was then centrifuged in 2M sucrose (31,300 g) to produce a semi-purified membrane pellet. The pellet was resuspended in homogenization and stored at −80° C.
(§2) On the day of the assay, the pellet was thawed on ice and diluted in assay buffer (50 mM Tris-HCl, 5 mM MgCl2, 2.5 mM EDTA, 0.5 mg/mL fatty acid free bovine serum albumin, pH 7.5). The diluted membrane pellet was added with buffer, either a test compound or vehicle standard and the radioligand [H]^3+-CP-55,940 (0.2 nM) to the wells of a 96-well polypropylene plate. Non-specific binding was measured in wells containing WIN 55,212 (10 uM). The plate was covered and incubated for 90 minutes at 30° C. The contents were then aspirated onto a Packard Unifilter GF/C filter bottom plate prewet with 0.5% polyethyleneimine. The wells of the polypropylene plate were rinsed and aspirated seven times with a 0.9% saline-0.5% Tween 20 solution. The Unifilter plate was dried, scintillation cocktail was added to each well and the counts representing binding were quantitated in a TopCount scintillation counter.
(§3) For compounds tested, an IC50 binding value was obtained from percent inhibition studies in which various test concentrations were used. The binding value was calculated by linear regression.
(§4) For compounds without an IC50 binding value, the percent inhibition (%) was obtained at a test concentration of ^a1.0 μM or ^b0.2 μM.

human CB2 receptor = target: T2, human CB2 receptor (Homo sapiens, UniProt P34972); assay: Binding assay, cannabinoid CB2 receptor, [3H]-CP-55,940 displacement; conditions: for inhibition at 1 µM / inhibition at 0.2 µM: read-out: Cannabinoid CB2 Receptor Binding, percent inhibition; for IC50: membranes of SK-N-MC cells expressing human CB2, calculated by linear regression from percent inhibition at various concentrations
T2 construct: expressed in transfected cells; host or cells: SK-N-MC cells, stably transfected with pcDNA3 CB-2 (human); semi-purified membrane pellet
T2 sequence (P34972 whole entry): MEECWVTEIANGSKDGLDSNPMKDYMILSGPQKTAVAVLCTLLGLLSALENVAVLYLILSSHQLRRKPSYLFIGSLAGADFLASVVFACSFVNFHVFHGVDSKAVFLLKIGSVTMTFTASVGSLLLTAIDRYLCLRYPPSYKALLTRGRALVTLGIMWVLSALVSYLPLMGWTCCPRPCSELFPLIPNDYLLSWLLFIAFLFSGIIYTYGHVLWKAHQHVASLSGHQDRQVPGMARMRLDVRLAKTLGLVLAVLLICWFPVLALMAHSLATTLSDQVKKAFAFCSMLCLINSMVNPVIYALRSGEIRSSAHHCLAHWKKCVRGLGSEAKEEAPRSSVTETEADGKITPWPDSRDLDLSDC
Experimental: as §1, §2, §3, §4

[1] = membranes of SK-N-MC cells expressing human CB1, calculated by linear regression from percent inhibition at various concentrations, read-out: Cannabinoid CB1 Receptor Binding, IC50 binding value
[2] = read-out: Cannabinoid CB1 Receptor Binding, percent inhibition

T1 sequence (P21554 whole entry): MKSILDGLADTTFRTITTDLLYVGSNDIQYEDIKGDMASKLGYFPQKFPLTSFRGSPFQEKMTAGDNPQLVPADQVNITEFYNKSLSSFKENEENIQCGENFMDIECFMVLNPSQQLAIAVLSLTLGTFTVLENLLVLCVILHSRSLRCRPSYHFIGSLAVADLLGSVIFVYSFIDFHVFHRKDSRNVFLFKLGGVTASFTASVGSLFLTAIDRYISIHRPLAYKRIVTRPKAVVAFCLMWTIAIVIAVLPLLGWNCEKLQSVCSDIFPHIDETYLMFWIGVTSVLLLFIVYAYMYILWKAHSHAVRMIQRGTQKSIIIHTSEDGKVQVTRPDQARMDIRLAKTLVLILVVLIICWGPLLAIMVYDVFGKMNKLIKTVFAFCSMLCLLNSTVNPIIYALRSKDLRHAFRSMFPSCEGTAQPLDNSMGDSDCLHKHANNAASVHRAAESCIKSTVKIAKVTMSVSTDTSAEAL

Row | Structure (SMILES) | IC50 (human CB1 receptor; [1]) [nM] | inhibition at 1 µM (human CB2 receptor) [%] | IC50 (human CB1 receptor) [nM] | further results
1 | CC(=Cc1cccc(Cl)c1)c1c(C)c(C(=O)N[C@@H](C)c2ccccc2)nn1-c1ccc(Cl)cc1Cl [Cpd 17, 5-[2-(3-chloro-phenyl)-1-methyl-vinyl]-1-(2,4-dichloro-phenyl)-4-methyl-1H-pyrazole-3-carboxylic acid [(1S)-1-phenyl-ethyl]-amide] | 250 |  |  | 
2 | CC(=Cc1ccc(Cl)cc1)c1c(C)c(C(=O)NCC2CCCCC2)nn1-c1ccc(Cl)cc1Cl [Cpd 9, 5-[2-(4-chloro-phenyl)-1-methyl-vinyl]-1-(2,4-dichloro-phenyl)-4-methyl-1H-pyrazole-3-carboxylic acid cyclohexylmethyl-amide] | 370 | 49 |  | 
3 | CC(=Cc1ccc(Cl)cc1)c1c(C)c(C(=O)NN2CCCCC2)nn1-c1ccc(Cl)cc1Cl [Cpd 4, 5-[2-(4-chloro-phenyl)-1-methyl-vinyl]-1-(2,4-dichloro-phenyl)-4-methyl-1H-pyrazole-3-carboxylic acid piperidin-1-ylamide] |  |  | 90 | IC50 (human CB2 receptor): 1700 nM
4 | CC(=Cc1cccc(Cl)c1)c1c(C)c(C(=O)NN2CCCCC2)nn1-c1ccc(Cl)cc1Cl [Cpd 12, 5-[2-(3-chloro-phenyl)-1-methyl-vinyl]-1-(2,4-dichloro-phenyl)-4-methyl-1H-pyrazole-3-carboxylic acid piperidin-1-ylamide] | 250 |  |  | 
5 | CC(=Cc1ccc(Cl)cc1)c1c(C)c(C(=O)NC2CCCCC2C)nn1-c1ccc(Cl)cc1Cl (stereo not shown) [Cpd 7, 5-[2-(4-chloro-phenyl)-1-methyl-vinyl]-1-(2,4-dichloro-phenyl)-4-methyl-1H-pyrazole-3-carboxylic acid (2-methyl-cyclohexyl)-amide] | 110 | 55 |  | 
6 | CC(=Cc1cccc(Cl)c1)c1c(C)c(C(=O)N[C@H](C)C2CCCCC2)nn1-c1ccc(Cl)cc1Cl [Cpd 18, 5-[2-(3-chloro-phenyl)-1-methyl-vinyl]-1-(2,4-dichloro-phenyl)-4-methyl-1H-pyrazole-3-carboxylic acid [(1R)-1-cyclohexyl-ethyl]-amide] |  |  | 90 | 
7 | CC(=Cc1ccc(Cl)cc1)c1c(C)c(C(=O)N[C@@H]2C(C)(C)[C@@H]3CC[C@]2(C)C3)nn1-c1ccc(Cl)cc1Cl [Cpd 3, 5-[2-(4-chloro-phenyl)-1-methyl-vinyl]-1-(2,4-dichloro-phenyl)-4-methyl-1H-pyrazole-3-carboxylic acid [(1R,2S,4R)-1,3,3-trimethyl-bicyclo[2.2.1]hept-2-yl]-amide] |  | 31 | 50 | 
8 | CC(=Cc1ccc(Cl)cc1)c1c(C)c(C(=O)N[C@H](C)C2CCCCC2)nn1-c1ccc(Cl)cc1Cl [Cpd 8, 5-[2-(4-chloro-phenyl)-1-methyl-vinyl]-1-(2,4-dichloro-phenyl)-4-methyl-1H-pyrazole-3-carboxylic acid [(1R)-1-cyclohexyl-ethyl]-amide] |  | 39 | 310 | 
9 | CC(=Cc1ccc(Cl)cc1)c1c(C)c(C(=O)N[C@H](C)C2CCCCC2)nn1-c1ccc(F)cc1F [Cpd 24, 5-[2-(4-chloro-phenyl)-1-methyl-vinyl]-1-(2,4-difluoro-phenyl)-4-methyl-1H-pyrazole-3-carboxylic acid [(1R)-1-cyclohexyl-ethyl]-amide] | 280 |  |  | 
10 | CC(=Cc1ccc(Cl)cc1)c1c(C)c(C(=O)N[C@@H](C)C2CCCCC2)nn1-c1ccc(Cl)cc1Cl [Cpd 1, 5-[2-(4-chloro-phenyl)-1-methyl-vinyl]-1-(2,4-dichloro-phenyl)-4-methyl-1H-pyrazole-3-carboxylic acid [(1S)-1-cyclohexyl-ethyl]-amide] |  | 42 | 20 | 
11 | CC(=Cc1ccc(Cl)cc1)c1c(C)c(C(=O)N[C@H](C)c2ccccc2)nn1-c1ccc(Cl)cc1Cl [Cpd 11, 5-[2-(4-chloro-phenyl)-1-methyl-vinyl]-1-(2,4-dichloro-phenyl)-4-methyl-1H-pyrazole-3-carboxylic acid [(1R)-1-phenyl-ethyl]-amide] |  | 51 | 340 | 
12 | CC(=Cc1ccc(Cl)cc1)c1c(C)c(C(=O)N[C@@H](C)C2CCCCC2)nn1-c1ccc(F)cc1F [Cpd 21, 5-[2-(4-chloro-phenyl)-1-methyl-vinyl]-1-(2,4-difluoro-phenyl)-4-methyl-1H-pyrazole-3-carboxylic acid [(1S)-1-cyclohexyl-ethyl]-amide] | 130 |  |  | 
13 | CC(=Cc1ccc(Cl)cc1)c1c(C)c(C(=O)Nc2ccccc2)nn1-c1ccc(Cl)cc1Cl [Cpd 10, 5-[2-(4-chloro-phenyl)-1-methyl-vinyl]-1-(2,4-dichloro-phenyl)-4-methyl-1H-pyrazole-3-carboxylic acid phenylamide] | 600 | 46 |  | 
14 | CC(=Cc1ccc(Cl)cc1)c1c(C)c(C(=O)NC2CCCCC2)nn1-c1ccc(Cl)cc1Cl [Cpd 6, 5-[2-(4-chloro-phenyl)-1-methyl-vinyl]-1-(2,4-dichloro-phenyl)-4-methyl-1H-pyrazole-3-carboxylic acid cyclohexylamide] | 130 | 40 |  | 
15 | CC(=Cc1ccc(Cl)cc1)c1c(C)c(C(=O)NN2CCOCC2)nn1-c1ccc(Cl)cc1Cl [Cpd 5, 5-[2-(4-chloro-phenyl)-1-methyl-vinyl]-1-(2,4-dichloro-phenyl)-4-methyl-1H-pyrazole-3-carboxylic acid morpholin-4-ylamide] | 360 |  |  | IC50 (human CB2 receptor): 2000 nM
16 | CC(=Cc1cccc(Cl)c1)c1c(C)c(C(=O)N[C@@H](C)C2CCCCC2)nn1-c1ccc(Cl)cc1Cl [Cpd 16, 5-[2-(3-chloro-phenyl)-1-methyl-vinyl]-1-(2,4-dichloro-phenyl)-4-methyl-1H-pyrazole-3-carboxylic acid [(1S)-1-cyclohexyl-ethyl]-amide] |  |  | 330 | 
17 | CC(=Cc1ccc(Cl)cc1)c1c(C)c(C(=O)N[C@@H](C)c2ccccc2)nn1-c1ccc(Cl)cc1Cl [Cpd 2, 5-[2-(4-chloro-phenyl)-1-methyl-vinyl]-1-(2,4-dichloro-phenyl)-4-methyl-1H-pyrazole-3-carboxylic acid [(1S)-1-phenyl-ethyl]-amide] |  | 32 | 20 | 
18 | CC(=Cc1ccc(Cl)cc1)c1c(C)c(C(=O)N[C@H](C)c2ccccc2)nn1-c1ccc(F)cc1F [Cpd 23, 5-[2-(4-chloro-phenyl)-1-methyl-vinyl]-1-(2,4-difluoro-phenyl)-4-methyl-1H-pyrazole-3-carboxylic acid [(1R)-1-phenyl-ethyl]-amide] | 300 |  |  | 
19 | CC[C@H](C)NC(=O)c1nn(-c2ccc(Cl)cc2Cl)c(C(C)=Cc2ccc(Cl)cc2)c1C [Cpd 29, 5-[2-(4-chloro-phenyl)-1-methyl-vinyl]-1-(2,4-dichloro-phenyl)-4-methyl-1H-pyrazole-3-carboxylic acid [(S)-sec-butyl]-amide] |  |  |  | inhibition at 0.2 µM (human CB1 receptor; [2]): 52%; inhibition at 0.2 µM (human CB2 receptor): 9%
20 | CC(=Cc1cccc(Cl)c1)c1c(C)c(C(=O)NN2CCOCC2)nn1-c1ccc(Cl)cc1Cl [Cpd 13, 5-[2-(3-chloro-phenyl)-1-methyl-vinyl]-1-(2,4-dichloro-phenyl)-4-methyl-1H-pyrazole-3-carboxylic acid morpholin-4-ylamide] |  |  |  | inhibition at 1 µM (human CB1 receptor; [2]): 53%
21 | CC[C@@H](C)NC(=O)c1nn(-c2ccc(Cl)cc2Cl)c(C(C)=Cc2ccc(Cl)cc2)c1C [Cpd 28, 5-[2-(4-chloro-phenyl)-1-methyl-vinyl]-1-(2,4-dichloro-phenyl)-4-methyl-1H-pyrazole-3-carboxylic acid [(R)-sec-butyl]-amide] |  |  | 70 | inhibition at 0.2 µM (human CB2 receptor): 21%
22 | CNC(=O)c1nn(-c2ccc(Cl)cc2Cl)c(C(C)=Cc2ccc(Cl)cc2)c1C [Cpd 27, 5-[2-(4-chloro-phenyl)-1-methyl-vinyl]-1-(2,4-dichloro-phenyl)-4-methyl-1H-pyrazole-3-carboxylic acid methylamide] |  |  |  | inhibition at 0.2 µM (human CB1 receptor; [2]): 11%; inhibition at 0.2 µM (human CB2 receptor): 18%
23 | CC(=Cc1cccc(Cl)c1)c1c(C)c(C(=O)N[C@H](C)c2ccccc2)nn1-c1ccc(Cl)cc1Cl [Cpd 19, 5-[2-(3-chloro-phenyl)-1-methyl-vinyl]-1-(2,4-dichloro-phenyl)-4-methyl-1H-pyrazole-3-carboxylic acid [(1R)-1-phenyl-ethyl]-amide] | 370 |  |  | 

Source: US7943653B2 (priority 2008, dated 2011)
